Source: patent publication US20070010402A1, “Novel herbicides, usage thereof, novel thienopyrimidine derivatives, intermediates of the same, and process for production thereof” (NIHON NOHYAKU CO., LTD.,, priority 2002, published 2007)

What was measured:
Echinochloa oryzicola = assay: Submerged foliar treatment test (Test Example 3); assay type: in vivo; details: water depth 3 cm, cotyledon to 1-leaf stage, wettable powder, active ingredient 10 g/a, 28th day from the treatment
Experimental: (§1) The herbicidal effect was evaluated in terms of herbicidal rate obtained from the following equation: Herbicidal rate (%)=[1−(Weight of weeds above the ground in a treated plot)/(Weight of weeds above the ground in a non-treated plot)]×100
(§2) and was expressed by herbicidal index according to the following criteria.
(§3) Alluvial soil from a paddy field was put in a resin-made vat having an area of 200 cm^2. After fertilization, seeds of Echinochloa oryzicola, Rotala indica and Scirpus juncoides were cast on the soil and uniformly covered with the soil, and water was poured onto the soil to keep a water depth of 3 cm. Then, cultivation was continued in a greenhouse, and when the weeds to be tested reached the cotyledon stage to 1-leaf stage, the wettable powder obtained in Formulation Example 1 was diluted with water and a predetermined amount thereof was added dropwise uniformly to the weeds by means of a pipette to give 10 g of the active ingredient per an are. Thereafter, cultivation was further continued in the greenhouse, and the herbicidal effect was examined on the 28th day from the treatment. The results obtained are shown in Table 9 (the compound numbers in Table 9 correspond to those in Tables 1 to 6).

Rotala indica = assay: Submerged foliar treatment test (Test Example 3); assay type: in vivo; details: water depth 3 cm, cotyledon to 1-leaf stage, wettable powder, active ingredient 10 g/a, 28th day from the treatment
Experimental: as §1, §2, §3

Scirpus juncoides = assay: Submerged foliar treatment test (Test Example 3); assay type: in vivo; details: water depth 3 cm, cotyledon to 1-leaf stage, wettable powder, active ingredient 10 g/a, 28th day from the treatment
Experimental: as §1, §2, §3

Brassica juncea = assay: Field foliar treatment test (Test Example 1); assay type: in vivo; details: foliar spray at 1.0- to 2.0-leaf stage, wettable powder, active ingredient 10 g/a, 21st day from the treatment
Experimental: (§4) Alluvial soil from a field was put in a resin-made vat having an area of 200 cm^2. After fertilization, the seeds of Echinochloa crus-galli, Brassica juncea, and Ipomoea purpurea were cast on the soil and uniformly covered with the soil. Then, cultivation was continued in a greenhouse, and when the weeds to be tested reached the 1.0- to 2.0-leaf stage, the wettable powder obtained in Formulation Example 1 was diluted with water and a predetermined amount thereof was sprayed uniformly to the weeds by means of a small-sized power pressure spray to give 10 g of the active ingredient per an are. Thereafter, cultivation was further continued in the greenhouse, and the herbicidal effect was examined on the 21st day from the treatment. The results obtained are shown in Table 7 (the compound numbers in Table 7 correspond to those in Table 1 to 6). The herbicidal effect was evaluated in terms of herbicidal rate obtained from the following equation: Herbicidal rate (%)=[1−(Weight of weeds above the ground in a treated plot)/(Weight of weeds above the ground in a non-treated plot)]×100 and was expressed by herbicidal index according to the following criteria. [table]

Echinochloa crus-galli = assay: Field foliar treatment test (Test Example 1); assay type: in vivo; details: foliar spray at 1.0- to 2.0-leaf stage, wettable powder, active ingredient 10 g/a, 21st day from the treatment
Experimental: as §4

Ipomoea purpurea = assay: Field foliar treatment test (Test Example 1); assay type: in vivo; details: foliar spray at 1.0- to 2.0-leaf stage, wettable powder, active ingredient 10 g/a, 21st day from the treatment
Experimental: as §4

SMILES	melting point [°C]	Herbicidal effect Echinochloa oryzicola (herbicidal index) (Echinochloa oryzicola)	Herbicidal effect Rotala indica (herbicidal index) (Rotala indica)	Herbicidal effect Scirpus juncoides (herbicidal index) (Scirpus juncoides)	Herbicidal effect Brassica juncea (herbicidal index) (Brassica juncea)	Herbicidal effect Echinochloa crus-galli (herbicidal index) (Echinochloa crus-galli)	Herbicidal effect Ipomoea purpurea (herbicidal index) (Ipomoea purpurea)
Cc1cc2c(-c3cccc(C(F)(F)F)c3)nc(-c3ccc(C(F)(F)F)cc3)nc2s1 [Compound No. 6-18, 6-methyl-2-[4-(trifluoromethyl)phenyl]-4-[3-(trifluoromethyl)phenyl]thieno[2,3-d]pyrimidine]	134 to 136	3 (51 to 70)	4 (71 to 90)	1 (6 to 30)	–	–	–
Cc1cc2c(Oc3cccc(C(F)(F)F)c3)nc(OCC(F)(F)F)nc2s1 [Compound No. 6-129, 6-methyl-2-(2,2,2-trifluoroethoxy)-4-[3-(trifluoromethyl)phenoxy]thieno[2,3-d]pyrimidine]	124 to 125	5 (91 to 100)	4 (71 to 90)	2 (31 to 50)	–	–	–
Cc1cc2c(Oc3cccc(C(F)(F)F)c3)nc(CCC(F)(F)F)nc2s1 [Compound No. 6-130, 6-methyl-4-[3-(trifluoromethyl)phenoxy]-2-(3,3,3-trifluoropropyl)thieno[2,3-d]pyrimidine]	85	–	–	–	4 (71 to 90)	2 (31 to 50)	3 (51 to 70)
Cc1cc2nc(OC(C)C)nc(-c3cccc(C(F)(F)F)c3)c2s1 [Compound No. 6-231, 2-isopropoxy-6-methyl-4-[3-(trifluoromethyl)phenyl]thieno[3,2-d]pyrimidine]	106	–	–	–	5 (91 to 100)	4 (71 to 90)	5 (91 to 100)

Continued, in another order:

melting point [°C]	SMILES	Herbicidal effect Echinochloa oryzicola (herbicidal index) (Echinochloa oryzicola)	Herbicidal effect Rotala indica (herbicidal index) (Rotala indica)	Herbicidal effect Scirpus juncoides (herbicidal index) (Scirpus juncoides)	Herbicidal effect Brassica juncea (herbicidal index) (Brassica juncea)	Herbicidal effect Echinochloa crus-galli (herbicidal index) (Echinochloa crus-galli)	Herbicidal effect Ipomoea purpurea (herbicidal index) (Ipomoea purpurea)
118 to 120	Cc1cc2c(-c3cccc(Cl)c3)nc(Cl)nc2s1 [Compound No. 5-15, 2-chloro-4-(3-chlorophenyl)-6-methylthieno[2,3-d]pyrimidine]	5 (91 to 100)	5 (91 to 100)	3 (51 to 70)	–	–	–
121 to 122	Cc1cc2c(-c3cccc(C(F)(F)F)c3)nc(C#N)nc2s1 [Compound No. 6-10, 2-cyano-6-methyl-4-[3-(trifluoromethyl)phenyl]thieno[2,3-d]pyrimidine]	5 (91 to 100)	5 (91 to 100)	4 (71 to 90)	–	–	–
40 to 41	Cc1cc2c(-c3cccc(C(F)(F)F)c3)nc(COCC(F)(F)F)nc2s1 [Compound No. 6-17, 6-methyl-2-[(2,2,2-trifluoroethoxy)methyl]-4-[3-(trifluoromethyl)phenyl]thieno[2,3-d]pyrimidine]	5 (91 to 100)	5 (91 to 100)	3 (51 to 70)	–	–	–
